Data: patent US12410179B2, “Modulators of TNF alpha activity and uses thereof” (RayThera, Inc., priority 2023, dated 2025)

The molecules below were run against TNFα (Homo sapiens, UniProt P01375) (assay: HEK-Blue hTNFα reporter assay). Conditions: HEK-Blue hTNFα reporter cells, SEAP readout; read-out: IC50 Range.
Assay type: cell-based
Parameters: purchased R&D biosystem (R&D Systems) 210-TA-020/CF
Summary of the method: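 Compounds preincubated 1 h at 37 °C with recombinant hTNFα ([…]), then added to HEK293 NF-κB-SEAP reporter cells, 10000 cells/well, 24 h at 37 °C. SEAP read by QUANTI-Blue at OD620; % inhibition versus stimulated and unstimulated controls, IC50 by 4-parameter fit.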

Sequence of TNFα (P01375 77-233 limits assumed): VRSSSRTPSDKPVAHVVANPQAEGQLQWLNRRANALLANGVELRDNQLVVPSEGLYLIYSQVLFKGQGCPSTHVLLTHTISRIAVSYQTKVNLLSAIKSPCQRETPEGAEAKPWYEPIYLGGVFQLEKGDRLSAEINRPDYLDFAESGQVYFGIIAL

Structure (SMILES)	IC50
[2H]C([2H])([2H])N1C(=O)c2cccc(OC(F)F)c2[C@H]2C[C@@H]1c1nn3ccc(-c4cnc([C@@]5(N)CCOC5)nc4)nc3c12 [Example 194]	25 to 100 nM
[2H]C([2H])([2H])N1C(=O)c2cccc(OC(F)F)c2[C@H]2C[C@@H]1c1nn3cc(F)c(-c4cnc(C5(N)CC5)nc4)nc3c12 [Example 239]	< 25 nM
CN1C(=O)c2cccc(OC(F)F)c2[C@H]2C[C@@H]1c1nn3ccc(-c4cnc([C@]5(C#N)C[C@@](C)(O)C5)nc4)nc3c12 [Example 5, (1r,3S)-1-(5-((7R,14S)-1-(difluoromethoxy)-6-methyl-5-oxo-5,6,7,14-tetrahydro-7,14-methanobenzo[c]pyrimido[1′,2′:1,5]pyrazolo[4,3-f]azocin-12-yl)pyrimidin-2-yl)-3-hydroxy-3-methylcyclobutane-1-carbonitrile]	< 25 nM
CN1C(=O)c2cccc(OC(F)F)c2[C@H]2C[C@@H]1c1nn3ccc(-c4cnc([C@]5(N)C[C@@](C)(O)C5)nc4)nc3c12 [Example 9, (7R,14S)-12-(2-((1s,3R)-1-amino-3-hydroxy-3-methylcyclobutyl)pyrimidin-5-yl)-1-(difluoromethoxy)-6-methyl-6,7-dihydro-7,14-methanobenzo[c]pyrimido[1′,2′:1,5]pyrazolo[4,3-f]azocin-5 (14H)-one]	< 25 nM
[2H]C([2H])([2H])N1C(=O)c2cccc(OC(F)F)c2[C@H]2C[C@@H]1c1nn3cnc(-c4cnc([C@]5(N)C[C@@](C)(C#N)C5)nc4)cc3c12 [Example 61]	< 25 nM
CN1C(=O)c2cccc(OC(F)F)c2[C@H]2C[C@@H]1c1nn3ccc(-c4cnc([C@@](O)(CC#N)C(F)F)nc4)cc3c12 [Example 79]	< 25 nM
[2H]C([2H])([2H])N1C(=O)c2cccc(OC(F)F)c2[C@H]2C[C@@H]1c1nn3cc(C)c(-c4cnc([C@]5(N)C[C@@](C)(O)C5)nc4)nc3c12 [Example 215]	< 25 nM
CN1C(=O)c2cccc(OC(F)F)c2[C@H]2C[C@@H]1c1nn3cc(F)c(-c4cnc(P(C)(C)=O)c(F)c4)cc3c12 [Example 39]	< 25 nM
CN1C(=O)c2cccc(OC(F)F)c2[C@H]2C[C@@H]1c1nn3ccc(-c4cnc(N5CCOCC5)nc4)cc3c12 [Example 158]	< 25 nM
CN1C(=O)c2cccc(OC(F)F)c2[C@H]2C[C@@H]1c1nn3ccc(-c4cnc([C@]5(O)C[C@](C)(O)C5)nc4)cc3c12 [Example 139]	< 25 nM
[2H]C([2H])([2H])N1C(=O)c2cccc(OC(F)F)c2[C@H]2C[C@@H]1c1nn3cc(C)c(-c4cnc(C(C)(C)N)nc4)nc3c12 [Example 296]	< 25 nM
[2H]C([2H])([2H])N1C(=O)c2cccc(OC(F)F)c2[C@H]2C[C@@H]1c1nn3cnc(-c4cnc(C5(N)CCC5)nc4)cc3c12 [Example 262]	< 25 nM
CN1C(=O)c2cccc(OC(F)F)c2[C@H]2C[C@@H]1c1nn3ccc(-c4cnc(C(C)(C)O)nc4)cc3c12 [Example 19]	< 25 nM
CN1C(=O)c2cccc(OC(F)F)c2[C@H]2C[C@@H]1c1nn3ccc(-c4cnc(C5(O)CCOC5)nc4)nc3c12 (stereo partly drawn) [Example 12, (7R,14S)-1-(difluoromethoxy)-12-(2-(3-hydroxytetrahydrofuran-3-yl)pyrimidin-5-yl)-6-methyl-6,7-dihydro-7,14-methanobenzo[c]pyrimido[1′,2′:1,5]pyrazolo[4,3-f]azocin-5 (14H)-one]	25 to 100 nM
CN1C(=O)c2cccc(OC(F)F)c2[C@H]2C[C@@H]1c1nn3ccc(-c4ccc(P(C)(C)=O)cc4)cc3c12 [Example 123]	< 25 nM
[2H]C([2H])([2H])N1C(=O)c2cccc(OC(F)F)c2[C@H]2C[C@@H]1c1nn3ccc(-c4cnc([C@@](C)(O)CC#N)nc4)cc3c12 [Example 89]	< 25 nM
[2H]C([2H])([2H])N1C(=O)c2cccc(OC(F)F)c2[C@H]2C[C@@H]1c1nn3ccc(-c4cnc([C@]5(O)C[C@@](C)(N)C5)nc4)cc3c12 [Example 208]	< 25 nM
CN1C(=O)c2cccc(OC(F)F)c2[C@H]2C[C@@H]1c1nn3cc(F)c(-c4ccc(P(C)(C)=O)nc4)cc3c12 [Example 29]	< 25 nM
[2H]C([2H])([2H])N1C(=O)c2cccc(OC(F)F)c2[C@H]2C[C@@H]1c1nn3cc(C)c(-c4cnc([C@]5(N)C[C@@](C)(C#N)C5)nc4)cc3c12 [Example 259]	< 25 nM
CN1C(=O)c2cccc(OC(F)F)c2[C@H]2C[C@@H]1c1nn3ccc(-c4cnc([C@]5(N)C[C@](C)(C#N)C5)nc4)cc3c12 [Example 167]	< 25 nM
CN1C(=O)c2cccc(OC(F)F)c2[C@H]2C[C@@H]1c1nn3ccc(-c4cnc(C5(O)CCOCC5)nc4)cc3c12 [Example 65]	< 25 nM
[2H]C([2H])([2H])N1C(=O)c2cccc(OC(F)F)c2[C@H]2C[C@@H]1c1nn3ccc(-c4cnc([C@]5(N)C[C@@](C)(C#N)C5)nc4)nc3c12 [Example 56]	< 25 nM
[2H]C([2H])([2H])N1C(=O)c2cccc(OC(F)F)c2[C@H]2C[C@@H]1c1nn3ccc(-c4cnc([C@]5(O)C[C@@](C)(C#N)C5)c(F)c4)nc3c12 [Example 249]	< 25 nM

Structure (SMILES)	IC50
[2H]C([2H])([2H])N1C(=O)c2cccc(OC(F)F)c2[C@H]2C[C@@H]1c1nn3ccc(-c4cnc([C@]5(O)C[C@@](C)(C#N)C5)nc4)nc3c12 [Example 271]	< 25 nM
[2H]C([2H])([2H])N1C(=O)c2cccc(OC(F)F)c2[C@H]2C[C@@H]1c1nn3ccc(-c4cnc([C@]5(N)C[C@H](C#N)C5)nc4)nc3c12 [Example 179]	< 25 nM
[2H]C([2H])([2H])N1C(=O)c2cccc(OC(F)F)c2[C@H]2C[C@@H]1c1nn3ccc(-c4cnc([C@@H](N)C5CC5)nc4)nc3c12 [Example 276]	25 to 100 nM
CN1C(=O)c2cccc(C#N)c2[C@H]2C[C@@H]1c1nn3ccc(-c4ccc(P(C)(C)=O)nc4)cc3c12 [Example 303]	< 25 nM
C[C@]1(C#N)C[C@](N)(c2ncc(-c3nc4c5c(nn4cc3F)[C@H]3C[C@@H]5c4c(OC(F)F)cccc4C(=O)N3)cc2F)C1 [Example 174]	< 25 nM
[2H]C([2H])([2H])N1C(=O)c2cccc(OC(F)F)c2[C@H]2C[C@@H]1c1nn3cc(C)c(-c4cnc(C5(N)CCC5)nc4)cc3c12 [Example 181]	< 25 nM
[2H]C([2H])([2H])N1C(=O)c2cccc(OC(F)F)c2[C@H]2C[C@@H]1c1nn3cc(F)c(-c4cnc([C@]5(N)C[C@@H](O)C5)nc4)nc3c12 [Example 205]	25 to 100 nM
[2H]C([2H])([2H])N1C(=O)c2cccc(OC(F)F)c2[C@H]2C[C@@H]1c1nn3ccc(-c4cnc([C@]5(N)C[C@@H](O)C5)nc4)nc3c12 [Example 204]	25 to 100 nM
CN1C(=O)c2cccc(OC(F)F)c2[C@H]2C[C@@H]1c1nn3cc(F)c(-c4cnc([C@]5(O)C[C@@](C)(O)C5)nc4)nc3c12 [Example 26]	< 25 nM
CN1C(=O)c2cccc(OC(F)F)c2[C@H]2C[C@@H]1c1nn3cc(F)c(-c4cnc([C@](C)(O)CO)nc4)cc3c12 [Example 114]	< 25 nM
[2H]C([2H])([2H])N1C(=O)c2cccc(OC(F)F)c2[C@H]2C[C@@H]1c1nn3cc(F)c(-c4cnc(C5(N)CC(F)(F)C5)nc4)nc3c12 [Example 228]	< 25 nM
Cc1nc(C2(N)CCC2)ncc1-c1ccn2nc3c(c2c1)[C@@H]1C[C@H]3NC(=O)c2cccc(OC(F)F)c21 [Example 234]	< 25 nM
CN1C(=O)c2cccc(OC(F)F)c2C2CC1c1nn3ccc(-c4cnc(C5(N)CCC5)nc4)nc3c12 (stereo not shown) [Example 1, 12-(2-(1-aminocyclobutyl)pyrimidin-5-yl)-1-(difluoromethoxy)-6-methyl-6,7-dihydro-7,14-methanobenzo[c]pyrimido[1′,2′:1,5]pyrazolo[4,3-f]azocin-5 (14H)-one]	25 to 100 nM
CN1C(=O)c2cccc(OC(F)F)c2[C@H]2C[C@@H]1c1nn3ccc(-c4cnc([C@](O)(CC#N)C(F)F)nc4)cc3c12 [Example 78]	< 25 nM
CN1C(=O)c2cccc(OC(F)F)c2[C@H]2C[C@@H]1c1nn3ccc(-c4cnc(S(=N)(=O)C5CC5)nc4)cc3c12 (stereo partly shown) [Example 92]	25 to 100 nM
CN1C(=O)c2cccc(OC(F)F)c2[C@H]2C[C@@H]1c1nn3ccc(-c4cnc([C@]5(N)C[C@@](C)(C#N)C5)nc4)nc3c12 [Example 7, (1R,3s)-3-amino-3-(5-((7R,14S)-1-(difluoromethoxy)-6-methyl-5-oxo-5,6,7,14-tetrahydro-7,14-methanobenzo[c]pyrimido[1′,2′:1,5]pyrazolo[4,3-f]azocin-12-yl)pyrimidin-2-yl)-1-methylcyclobutane-1-carbonitrile]	< 25 nM
[2H]C([2H])([2H])N1C(=O)c2ccc(F)c(OC(F)F)c2[C@H]2C[C@@H]1c1nn3ccc(-c4cnc(C(C)(C)N)nc4)nc3c12 [Example 297]	< 25 nM
CP(C)(=O)c1ccc(-c2ccn3nc4c(c3c2)[C@@H]2C[C@H]4NC(=O)c3cccc(OC(F)F)c32)cc1F [Example 127]	< 25 nM
[2H]C([2H])([2H])N1C(=O)c2cccc(OC(F)F)c2[C@H]2C[C@@H]1c1nn3ccc(-c4cnc([C@]5(O)C[C@@](C)(N)C5)cn4)cc3c12 [Example 253]	< 25 nM
CN1C(=O)c2cccc(OC(F)F)c2[C@H]2C[C@@H]1c1nn3cc(F)c(-c4cnc([C@](C)(O)CC#N)nc4)cc3c12 [Example 117]	< 25 nM
C[C@]1(O)C[C@](N)(c2ncc(-c3ccn4nc5c(c4c3)[C@@H]3C[C@H]5NC(=O)c4cccc(OC(F)F)c43)cn2)C1 [Example 197]	< 25 nM
CN1C(=O)c2cccc(OC(F)F)c2[C@H]2C[C@@H]1c1nn3ccc(-c4ncc(P(C)(C)=O)cn4)cc3c12 [Example 138]	< 25 nM

Same assay, conditions: HEK-Blue hTNFα reporter cells; read-out: TNFα reporter, Emax

Structure (SMILES)	Emax
CN1C(=O)c2cccc(OC(F)F)c2[C@H]2C[C@@H]1c1nc3ccc(-c4cnc([C@]5(N)C[C@@](C)(O)C5)c(F)c4)cc3n12 [Comp. Ex #2, reference compound]	85%
CN1C(=O)c2cccc(OC(F)F)c2[C@H]2C[C@@H]1c1nn3ccc(-c4cnc(C5(O)CCOCC5)nc4)cc3c12 [Example 65]	90%

Same assay, conditions: HEK-Blue hTNFα reporter cells; read-out: TNFα reporter, IC50

Structure (SMILES)	IC50
CN1C(=O)c2cccc(OC(F)F)c2[C@H]2C[C@@H]1c1nc3ccc(-c4cnc([C@]5(N)C[C@@](C)(O)C5)c(F)c4)cc3n12 [Comp. Ex #2, reference compound]	4.7 nM
CN1C(=O)c2cccc(OC(F)F)c2[C@H]2C[C@@H]1c1nn3ccc(-c4cnc(C5(O)CCOCC5)nc4)cc3c12 [Example 65]	3.1 nM
